Measured values published in patent US12216121B2, “Methods and compositions for spacial and temporal measurement of catalytic activity” (The University of Chicago, priority 2017, dated 2025).

Assay: Specificity of reporter dye (compound 8) towards metal ions and amino acids
Settings: 1 mM metal ions, 5 mM H2O2 and amino acids, phosphate buffer pH 7.2; all tested except cysteine
Method: FIG. 5C illustrates the sensitivity of sensing dye, (compound 8) in presence of different analyte such as 1. Phosphate buffer (pH=7.2), 1 mM of 2. Na+, 3. K+, 4. Ca2+, 5. Fe2+, 6. Zn2+, and 5 mM of 7. H2O2, 8. His, 9. Ser, 10. Lys, 11. Val, and 12. Cys. Each intensity is normalized from the intensity of compound 8 before treatment with respective analytes.
The specificity of reporter dye was checked towards thiol disulfide exchange reaction and treated the reporter dye (compound 8) with different metal ions and amino acids.

thiopyridyl conjugated blocked 6′-O propargyl fluorescein [compound 8]
reaction with metal ions and amino acids (fluorescence): No reaction was observed
